Converted amounts (≈) assume the structure as drawn. Like-named read-outs stand apart in the source and are kept apart here.

Results on 21 compounds are retold here after article PMC8036603, “Small Molecule Inhibitors of White Spot Syndrome Virus: Promise in Shrimp Seedling Culture” (International Journal of Molecular Sciences, 2021).

The test system of data set [1] is white spot syndrome virus (WSSV). In words: Anti-WSSV activity in shrimp larvae, co-incubation, copy number of viral genome by RT-qPCR. Format: in vivo, Litopenaeus vannamei. For orientation: In qPCR the cycle at which signal appears reflects the starting amount.
Data set [2] is described as follows: Acute toxicity assay in shrimp larvae. Format: in vivo, Litopenaeus vannamei. The note with it: Litopenaeus vannamei (shrimp) larvae, in vivo, other: immersion of larvae in test solutions, 28 °C, 95% CI in brackets; for LC50 at 24 h: 24 h exposure, read-out: LC50 (mg/L; 95% CI) 24 h; for LC50 at 48 h: 48 h exposure, read-out: LC50 (mg/L; 95% CI) 48 h; for LC50 at 72 h: 72 h exposure, read-out: LC50 (mg/L; 95% CI) 72 h. The method, then:
Shrimp (L. vannamei) larvae (total length: 0.5 ± 0.04 cm, body weight: 4.2 ± 0.4 mg, mean ± SD) were provided by Zhejiang Mariculture Research Institute Qingjiang Station (Wenzhou, China). The larvae were maintained in a culture pond at 28 °C, fed four times a day with commercial feed pellets, and collected randomly for PCR testing to verify the WSSV-free status prior to the trial.
Acute toxicity of the coumarin derivatives was investigated by exposing larvae to a range of compound concentrations, from 0.1 mg/L to 100 mg/L of coumarin derivatives, where the dose setting was based on the data from preliminary tests in our laboratory. A DMSO-control (2%, v/v, the highest percentage of DMSO in treatments) served as the control. During the experiment, every 20 larvae were moved into six-well plates filled with 6 mL/per well freshly prepared test solutions for a 72-h incubation at 28 °C with a natural photoperiod. […] To avoid deterioration of water quality, dead shrimps were immediately removed at the point of observation. Three replicate experiments were performed.
Compound response curves were represented by a logistic sigmoidal function with a maximal effect level (Amax) and Hill coefficient representing the sigmoidal transition (Origin 8.1; http://www.originlab.com, accessed on 25 March 2021). Statistical analyses were performed using SPSS (version 18.0) statistical software (SPSS Inc., Chicago, IL, USA). The LC50 and EC50 values with 95% CIs were calculated using probit analysis. Virus titers were log10-transformed prior to statistical analyses. Unpaired Student’s t-tests were used to compare coumarin-treated samples and negative-control DMSO samples for determining significance and data are presented as mean values ± SD.

[3] abbreviates: Whispovirus xiabaidian, 72 h, WSSV-infected larvae, copy number of viral genome, 72 h; 95% CI in brackets; read-out: EC50 (mg/L; 95% CI), median effective concentration.
Setting [4] is: WSSV-infected larvae, copy number of viral genome, 72 h; 95% CI in brackets.
[5] abbreviates: Whispovirus xiabaidian, 72 h, read-out: EC50 (mg/L; 95% CI), median effective concentration, WSSV-infected larvae, copy number of viral genome, 72 h; 95% CI in brackets.
[6] abbreviates: six-point dose-response, viral genome copy number in larvae.

In the case of `O=C1Nc2c(c(=O)oc3ccccc23)C(c2ccccc2)N1` (stereo not shown) [A1, 4-phenyl-3,4-dihydro-2H-chromeno[4,3-d]pyrimidine-2,5(1H)-dione], the EC50 in data set [1] (setting [3]) is 21.5 mg/L. In data set [2], the LC50 at 24 h amounted to 95.5 mg/L (≈ 327 µM), the LC50 at 48 h was found to be 71.4 mg/L (≈ 244 µM) and the LC50 at 72 h turned out to be 32.5 mg/L (≈ 111 µM).
For `Cc1ccc(C2NC(=O)Nc3c2c(=O)oc2ccccc32)cc1` (stereo not shown) [A2, 4-(p-tolyl)-3,4-dihydro-2H-chromeno[4,3-d]pyrimidine-2,5(1H)-dione], the “EC50 (mg/L; 95% CI), median effective concentration” value in data set [1] (setting [4]) was 05.037 (4.076~7.593) mg/L. Moreover, the EC50 in data set [1] (setting [3]) is < 10 mg/L. Moreover, in data set [2], the LC50 at 24 h is 15 mg/L (≈ 49 µM), the LC50 at 48 h was found to be 14.3 mg/L (≈ 46.6 µM) and the LC50 at 72 h amounted to 10 mg/L (≈ 32.7 µM).
On to `COc1ccc(C2NC(=O)Nc3c2c(=O)oc2ccccc32)cc1` (stereo not shown) [A3, 4-(4-methoxyphenyl)-3,4-dihydro-2H-chromeno[4,3-d]pyrimidine-2,5(1H)-dione], for which the EC50 in data set [1] (setting [3]) is 14.9 mg/L. Moreover, in data set [2], the LC50 at 24 h is 26.9 mg/L (≈ 83.4 µM), the LC50 at 48 h turned out to be 24.5 mg/L (≈ 76 µM) and the LC50 at 72 h stood at 21.1 mg/L (≈ 65.5 µM).
In the case of `O=C1Nc2c(c(=O)oc3ccccc23)C(c2ccc(F)cc2)N1` (stereo not shown) [A5, 4-(4-fluorophenyl)-3,4-dihydro-2H-chromeno[4,3-d]pyrimidine-2,5(1H)-dione], the “EC50 (mg/L; 95% CI), median effective concentration” value in data set [1] (setting [4]) was 08.416 (7.137~11.317) mg/L. In addition, the EC50 in data set [1] (setting [3]) was < 10 mg/L. Also, in data set [2], the LC50 at 24 h came out at 16.6 mg/L (≈ 53.6 µM), the LC50 at 48 h is 11.7 mg/L (≈ 37.9 µM) and the LC50 at 72 h came out at 10.1 mg/L (≈ 32.4 µM).
For `O=C1Nc2c(c(=O)oc3ccccc23)C(c2ccc(Cl)cc2)N1` (stereo not shown) [A6, 4-(4-chlorophenyl)-3,4-dihydro-2H-chromeno[4,3-d]pyrimidine-2,5(1H)-dione], in data set [2], the LC50 at 24 h is 2.58 mg/L (≈ 7.91 µM), the LC50 at 48 h amounted to 2.48 mg/L (≈ 7.59 µM) and the LC50 at 72 h turned out to be 2.35 mg/L (≈ 7.18 µM).
Consider `O=C1Nc2c(c(=O)oc3ccccc23)C(c2ccc(Br)cc2)N1` (stereo not shown) [A7, 4-(4-bromophenyl)-3,4-dihydro-2H-chromeno[4,3-d]pyrimidine-2,5(1H)-dione], for which, in data set [2], the LC50 at 24 h is 14.1 mg/L (≈ 38.1 µM), the LC50 at 48 h came to 5.68 mg/L (≈ 15.3 µM) and the LC50 at 72 h stood at 3.37 mg/L (≈ 9.07 µM).
With `O=C1Nc2c(c(=O)oc3ccccc23)C(c2ccc([N+](=O)[O-])cc2)N1` (stereo not shown) [A8, 4-(4-nitrophenyl)-3,4-dihydro-2H-chromeno[4,3-d]pyrimidine-2,5(1H)-dione], in data set [2], the LC50 at 24 h was 8.76 mg/L (≈ 26 µM), the LC50 at 48 h was determined as 3.43 mg/L (≈ 10.2 µM) and the LC50 at 72 h worked out at 1.61 mg/L (≈ 4.79 µM).
For the compound `N#Cc1ccc(C2NC(=O)Nc3c2c(=O)oc2ccccc32)cc1` (stereo not shown) [A9, 4-(2,5-dioxo-1,3,4,5-tetrahydro-2H-chromeno[4,3-d]pyrimidin-4-yl)benzonitrile], in data set [2], the LC50 at 24 h amounted to 19.8 mg/L (≈ 62.5 µM), the LC50 at 48 h was determined as 18 mg/L (≈ 56.6 µM) and the LC50 at 72 h came out at 7.33 mg/L (≈ 23.1 µM).
`O=c1oc2ccccc2c2c1C(c1ccccc1)NC(=S)N2` (stereo not shown) [B1, 4-phenyl-2-thioxo-1,2,3,4-tetrahydro-5H-chromeno[4,3-d]pyrimidin-5-one]: in data set [2], the LC50 at 24 h came out at 15 mg/L (≈ 48.7 µM), the LC50 at 48 h came out at 12.8 mg/L (≈ 41.4 µM) and the LC50 at 72 h worked out at 10.5 mg/L (≈ 34.2 µM).
Regarding `Cc1ccc(C2NC(=S)Nc3c2c(=O)oc2ccccc32)cc1` (stereo not shown) [B2, 2-thioxo-4-(p-tolyl)-1,2,3,4-tetrahydro-5H-chromeno[4,3-d]pyrimidin-5-one], in data set [2], the LC50 at 24 h is 23.9 mg/L (≈ 74 µM), the LC50 at 48 h turned out to be 18.6 mg/L (≈ 57.6 µM) and the LC50 at 72 h was found to be 14.7 mg/L (≈ 45.5 µM).
As to `COc1ccc(C2NC(=S)Nc3c2c(=O)oc2ccccc32)cc1` (stereo not shown) [B3, 4-(4-methoxyphenyl)-2-thioxo-1,2,3,4-tetrahydro-5H-chromeno[4,3-d]pyrimidin-5-one], in data set [1] (setting [3]), the EC50 came out at 25.6 mg/L. Moreover, in data set [2], the LC50 at 24 h was 66.2 mg/L (≈ 196 µM), the LC50 at 48 h stood at 64.1 mg/L (≈ 189 µM) and the LC50 at 72 h came out at 41.7 mg/L (≈ 123 µM).
As for `O=c1oc2ccccc2c2c1C(c1ccc(F)cc1)NC(=S)N2` (stereo not shown) [B5, 4-(4-fluorophenyl)-2-thioxo-1,2,3,4-tetrahydro-5H-chromeno[4,3-d]pyrimidin-5-one], in data set [2], the LC50 at 24 h was found to be 16.6 mg/L (≈ 50.7 µM), the LC50 at 48 h came out at 8.87 mg/L (≈ 27.2 µM) and the LC50 at 72 h is 8.4 mg/L (≈ 25.7 µM).
Take `O=c1oc2ccccc2c2c1C(c1ccc(Cl)cc1)NC(=S)N2` (stereo not shown) [B6, 4-(4-chlorophenyl)-2-thioxo-1,2,3,4-tetrahydro-5H-chromeno[4,3-d]pyrimidin-5-one]: in data set [2], the LC50 at 24 h was 8.85 mg/L (≈ 25.8 µM), the LC50 at 48 h was found to be 6.63 mg/L (≈ 19.3 µM) and the LC50 at 72 h is 4.5 mg/L (≈ 13.1 µM).
`O=c1oc2ccccc2c2c1C(c1ccc(Br)cc1)NC(=S)N2` (stereo not shown) [B7, 4-(4-bromophenyl)-2-thioxo-1,2,3,4-tetrahydro-5H-chromeno[4,3-d]pyrimidin-5-one]: in data set [2], the LC50 at 24 h turned out to be 10 mg/L (≈ 25.9 µM), the LC50 at 48 h was found to be 4.81 mg/L (≈ 12.4 µM) and the LC50 at 72 h worked out at 4.46 mg/L (≈ 11.5 µM).
As for `O=c1oc2ccccc2c2c1C(c1ccc([N+](=O)[O-])cc1)NC(=S)N2` (stereo not shown) [B8, 4-(4-nitrophenyl)-2-thioxo-1,2,3,4-tetrahydro-5H-chromeno[4,3-d]pyrimidin-5-one], in data set [2], the LC50 at 24 h worked out at 13.6 mg/L (≈ 38.3 µM), the LC50 at 48 h was 7.48 mg/L (≈ 21.2 µM) and the LC50 at 72 h was 3.06 mg/L (≈ 8.65 µM).
The corresponding values for `N#Cc1ccc(C2NC(=S)Nc3c2c(=O)oc2ccccc32)cc1` (stereo not shown) [B9, 4-(5-oxo-2-thioxo-1,3,4,5-tetrahydro-2H-chromeno[4,3-d]pyrimidin-4-yl)benzonitrile] are 37.1 mg/L (≈ 111 µM), 31.5 mg/L (≈ 94.5 µM) and 9.63 mg/L (≈ 28.9 µM).
Regarding `N#CC1=C(N)Oc2c(c(=O)oc3ccccc23)C1c1ccccc1` (stereo not shown) [C1], in data set [1] (setting [5]), the EC50 was 2.9 mg/L. Moreover, in data set [2], the LC50 at 24 h was 18.4 mg/L (≈ 58.2 µM), the LC50 at 48 h was 16.6 mg/L (≈ 52.6 µM) and the LC50 at 72 h amounted to 9.18 mg/L (≈ 29 µM).
Consider `COc1ccc(C2C(C#N)=C(N)Oc3c2c(=O)oc2ccccc32)cc1` (stereo not shown) [C3], for which, in data set [1] (setting [5]), the EC50 turned out to be 14.8 mg/L. In data set [2], the LC50 at 24 h worked out at 22.3 mg/L (≈ 64.5 µM), the LC50 at 48 h amounted to 17.3 mg/L (≈ 50 µM) and the LC50 at 72 h amounted to 17.3 mg/L (≈ 50 µM).
For the compound `N#CC1=C(N)Oc2c(c(=O)oc3ccccc23)C1c1ccc(O)cc1` (stereo not shown) [C4], the EC50 in data set [1] (setting [3]) was 61.2 mg/L. For the same compound, the “inhibitory efficiency on WSSV replication” value in data set [1] (setting [6]) is recorded as “exceeded 90%”.
For `N#CC1=C(N)Oc2c(c(=O)oc3ccccc23)C1c1ccc(Cl)cc1` (stereo not shown) [C6], the EC50 in data set [1] (setting [5]) was determined as 8.54 mg/L. The “inhibitory efficiency on WSSV replication” value in data set [1] (setting [6]) was “exceeded 90%”. In data set [2], the LC50 at 48 h was 44.2 mg/L (≈ 126 µM) and the LC50 at 72 h is 17.7 mg/L (≈ 50.4 µM).
In the case of `N#CC1=C(N)Oc2c(c(=O)oc3ccccc23)C1c1ccc(C#N)cc1` (stereo not shown) [C9], the EC50 in data set [1] (setting [5]) amounted to 60.5 mg/L.
